# Results published in the supplement of paper PMC10784567.
# ± gives the standard deviation of the averaged measurements.
# Compound: C=C1C[C@H]2C=Nc3cc(OCCCCCOc4cc5c(cc4OC)C(=O)N4CC(=C)C[C@H]4C=N5)c(OC)cc3C(=O)N2C1 [SG2057]
# Assay: absolute IC50 (cell viability, CellTiter-Glo); higher = less potent
# Conditions: treatment time: 3 days
# Method: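 Large cancer cell line panel screens in 384-well plates. Cells were treated for 3 days with a 9-point dose titration of the free PBD dimer SG2057; viability was read with CellTiter-Glo. Absolute IC50 came from a four-parameter Hill fit normalised to the median of vehicle (DMSO) wells. Several independent screens (projects) per cell line are averaged; values in µM, lowest-dose floor about 1.524e-5 µM.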
row,Test System,absolute IC50 [nM]
1,4T1 Luciferase,3.01
2,51BLim 10,0.371
3,59M,1.47
4,66c14,0.725
5,105KC (DODx),3.56
6,143B,0.191
7,501A,0.378 ± 0.25
8,537 MEL,1.23 ± 0.94
9,769-P,4.38 ± 4.6
10,786-O,1.24 ± 1.8
11,1321N1,0.0321
12,1624-16997 (Tumor A),0.926
13,1624-16997 (Tumor B),0.909
14,1624-16997 (Tumor C),1.55
15,1624-17082 (Tumor A),0.887
16,1624-17091 (Tumor A),0.849
17,1624-17091 (Tumor B),2.12
18,1624-17095 (Tumor A),1.31
19,1624-17095 (Tumor B),5.51
20,1624-17095 (Tumor C),0.777
21,1624-17147 (Tumor A),1.27
22,1624-17147 (Tumor B),1.55
23,4498-1636 Mel-nBR1,0.565
24,4498-14745 Mel-BR3,0.39
25,4498-16820 Mel-BR1,0.55

row,Test System,absolute IC50 [nM]
1,4498-16820 Mel-BR1 X1,0.911
2,8305C,0.706
3,8505C,0.595
4,23132/87,1 ± 1.2
5,A20,< 0.0152
6,A172,0.554
7,A549,0.926 ± 1.4
8,A-427,0.831
9,A-498,2.47
10,A-673,0.0661
11,AB22,4.95
12,ABC-1,0.365 ± 0.24
13,AE17,0.259
14,AM-38,4.53
15,AMO-1,0.409 ± 0.15
16,AN3 CA,1.45
17,ASH-3,0.925
18,ATRFLOX,0.211 ± 0.41
19,AU565,0.835 ± 0.35
20,AsPC-1,5.12 ± 5.9
21,B16-F1,0.595
22,B16-F10,1.01
23,B16-F10 Luciferase,0.894
24,B-CPAP,0.345
25,BA/F3,0.114

row,Test System,absolute IC50 [nM]
1,BE(2)-M17,0.494
2,BEN,43.1
3,BFTC-909,0.681
4,BHY,0.183
5,BICR 10,0.421
6,BICR 22,0.854
7,BOKU,0.258
8,BT-20,1.72 ± 0.74
9,BT-474,4.09 ± 3.7
10,BT-B,0.864
11,C2BBe1,7.31 ± 3.8
12,C32,0.31 ± 0.098
13,C32TG,0.2
14,C170,2.97 ± 1.1
15,C-33 A,0.0527
16,CA46,0.354 ± 0.53
17,CAL 27,0.164
18,CAL-12T,3.57 ± 3.2
19,CAL-85-1,1.67 ± 0.48
20,CAL-120,2.01 ± 2.9
21,CAMA-1,5.02
22,CCF-STTG1,2.87
23,CFPAC-1,0.526 ± 0.55
24,CGTH-W-1,0.189
25,CHL-1,1.39 ± 1.1

row,Test System,absolute IC50 [nM]
1,CHP-212,0.105
2,CI-1,0.104 ± 0.014
3,CL-11,21.7
4,CL-34,1.69 ± 3.5
5,COLO 201,0.782
6,COLO 205,1.52 ± 0.48
7,COLO 206F,2.54 ± 2.5
8,COLO 320,12
9,COLO 320DM,20.2
10,COLO 320HSR,1.9
11,COLO 678,5.65 ± 4.5
12,COLO 679,0.435 ± 0.34
13,COLO 680N,0.602
14,COLO 684,5
15,COLO 685,1.32
16,COLO 704,3.36 ± 2.6
17,COLO 783,3.44
18,COLO 792,3.47
19,COLO 794,0.0985 ± 0.063
20,COLO 818,3.37 ± 4.1
21,COLO 824,0.192
22,COLO 829,0.32 ± 0.18
23,COLO 853,1 ± 0.73
24,COLO 858,1.72 ± 1.4
25,COR-L26,0.211 ± 0.31

row,Test System,absolute IC50 [nM]
1,COR-L47,4.01
2,COR-L88,5.79
3,COR-L279,0.082
4,COV318,5.85 ± 6.6
5,COV362.4,4.61 ± 1.7
6,COV413A,2.34
7,COV413B,2.73 ± 3.9
8,COV434,0.188 ± 0.19
9,COV504,3.76 ± 4
10,CT26.WT,5.3
11,CX-1,1.82 ± 2
12,Ca Ski,0.254
13,CaR-1,0.535 ± 0.21
14,Caco-2,5.17 ± 0.99
15,Caki-1,0.052
16,Caki-2,10.2 ± 19
17,Calu-3,1.55 ± 0.058
18,Calu-6,6.78
19,Capan-2,4.33 ± 0.82
20,ChaGo-K-1,3.31 ± 1.5
21,Clone M-3 Cloudman S91 melanoma,0.202
22,CoCM-1,13.5
23,DAN-G,0.694 ± 0.32
24,DEOC-1,18.9
25,DLD-1,1.01 ± 0.81

row,Test System,absolute IC50 [nM]
1,DMS 273,1.38
2,DOV 13,0.241 ± 0.31
3,Daudi,0.155 ± 0.24
4,Detroit 562,1.79 ± 2.6
5,EB-3,0.637 ± 0.85
6,EBC-1,0.876
7,ECC-1,1.04
8,EFE-184,5.81 ± 7.5
9,EFM-192A,1.2
10,EL4,0.0929
11,EMT6 Luciferase,0.606
12,EPLC-272H,0.205
13,FA9JTOTERT,0.435
14,FOX-NY,0.0773
15,FTC-133,0.122
16,FTC-238,0.101
17,FU97,1.57
18,FaDu,0.35
19,G28T,0.984 ± 1
20,G59,0.803 ± 0.82
21,G61,0.189 ± 0.015
22,G96,0.588
23,G111,0.208 ± 0.22
24,G121,0.799 ± 0.38
25,G124,2.54

row,Test System,absolute IC50 [nM]
1,G140,1.28 ± 1.7
2,G141,0.924 ± 0.65
3,G142,0.556 ± 1
4,G-401,0.305 ± 0.16
5,G-402,0.349 ± 0.14
6,GB-1,1.12
7,GCH-nu-YS,0.242
8,GI-1,0.311
9,GOS-3,0.597
10,GOTOP3,0.217
11,GP5d,1.93 ± 1.5
12,GR-M,0.107 ± 0.064
13,H322T,2.68 ± 2.1
14,HCA-1,4.69
15,HCA-7,2.01 ± 1.7
16,HCC44,0.762 ± 0.59
17,HCC60 (NCI-H23),0.268
18,HCC70 (DODx),4.647 ± 0.017
19,HCC78,0.114 ± 0.099
20,HCC89,4.66 ± 3.1
21,HCC193,3.17 ± 2.2
22,HCC364,2.86 ± 4.4
23,HCC366,4.65
24,HCC515,0.134 ± 0.17
25,HCC597,6.01

row,Test System,absolute IC50 [nM]
1,HCC827,2.16 ± 4.3
2,HCC850,0.178
3,HCC880,2.86
4,HCC1010,0.134 ± 0.12
5,HCC1054,0.292
6,HCC1159,0.67
7,HCC1171,1.01 ± 0.16
8,HCC1187,0.601 ± 0.69
9,HCC1263,5.65 ± 3.7
10,HCC1319,12.8
11,HCC1347,2.49
12,HCC1428,6.01 ± 0.31
13,HCC1482,0.173
14,HCC1493,0.412 ± 0.72
15,HCC1534,3.18 ± 2.4
16,HCC1576,0.476
17,HCC1623,5.3
18,HCC1937,4.67 ± 4.4
19,HCC1954,1.35 ± 3.1
20,HCC2218,1.16
21,HCC2279,3.55 ± 6.2
22,HCC2302,8.98
23,HCC2450,5.43
24,HCC2688,0.282
25,HCC2885,0.801

row,Test System,absolute IC50 [nM]
1,HCC2935,5.29 ± 3.4
2,HCC3335,1.59
3,HCC3418,0.0218
4,HCC4011,4.15 ± 4.6
5,HCC4017,0.193
6,HCC4019,4.51 ± 2.9
7,HCC-15,2.35 ± 3.1
8,HCS-2,0.957
9,HCSC-1,3.07
10,HCT-8,1.43
11,HDQ-P1,4.08 ± 4.4
12,HEC-1-A,3.86
13,HEC-1-B,6.12
14,HEC-6,0.536
15,HEC-50B,0.713
16,HEC-59,0.472
17,HEC-88nu,3.07
18,HEC-108,1.42
19,HEC-116,0.464
20,HEC-151,0.352
21,HEC-251,1.28
22,HEC-265,0.555
23,HEL,0.067 ± 0.0071
24,HEp-2,0.322
25,HGC-27,0.406 ± 0.086

row,Test System,absolute IC50 [nM]
1,HL-60,5.24
2,HLE,2.7
3,HLF,0.503 ± 0.72
4,HM7,0.488 ± 0.27
5,HMVII,0.434 ± 0.73
6,HMY-1,1.17 ± 0.94
7,HN,0.225
8,HNT-34,0.076 ± 0.067
9,HOP-18,3.89
10,HPAC,13.2 ± 25
11,HPAF-II,4.04 ± 0.15
12,HSC-5,0.621
13,HT-3,0.212
14,HT-29,2.89 ± 2
15,HT-55,3.75 ± 2.6
16,HT-115,1.59 ± 0.21
17,HT-1080,0.569 ± 0.14
18,HUH-7,1.82
19,HUP-T3,0.645 ± 0.72
20,HUP-T4,1.09 ± 1.1
21,HeLa,1.8
